The text below walks through data of patent US20100285038A1, “Factor Involved in Metastasis and Uses Thereof” (priority 2002, published 2010).

Data set [1] relates to PRF1 protein. Kind of data set: Western blot analysis of PRF1 protein expression in PC-3 cells. It is filed as cell-based, human. As to conditions: for expressed PRF1 protein: lysates of PC-3 cells treated with PRF1 specific GeneBlocs or mismatches, polyclonal antibody (FIG. 8A); for expression of PRF1 protein: PC-3 cells under hypoxic conditions, 72 h GeneBloc treatment, CoCl2 treatment for 24 h (FIG. 10B). On the procedure: A polyclonal antibody was generated against PRF1 using standard techniques. The polyclonal antibody thus obtained was tested for its specificity for PRF1. For that purpose, cell lysates from PC-3 cells treated with PRF1 specific antisense molecules, more particularly gene blocks, or mismatches thereof and cells transfected with expression plasmides for recombinant HA-tagged PRF1 were prepared. The lysates were analysed by Western blot analysis using the polyclonal antibody and the results are depicted in FIG. 8 A.
To investigate whether PI 3-kinase activity has an impact on PRF1 protein expression, PC-3 cells were treated either with LY294002 or with DMSO as control. Analysis was performed by Western Blot analysis using the polyclonal antibody as detection means for PRF1 protein. Apart from PRF1 protein, also expression of Akt and phosphorylated Akt (P*Akt) was monitored using respective specific antibodies. Additionally, the expression of p110α and p85 was monitored.
(§1) To investigate whether the expression of PRF1 at the protein level would also be dependent on Akt (PKB) activity and HIF1α activity PC-3 cells were treated with Akt specific antisense molecules. More particularly, two antisense molecules, designated Akt1-GB and Akt2-molecule were used with the readout being the same as discussed in connection with FIG. 9, whereby, additionally, the HIF1α protein expression was monitored using a commercially available protein G-purified polyclonal antibody (R&DSystems, Lot Number: IUGO13071).
(§2) The same experiment using the same markers for monitoring except Akt and P*-Akt was carried out with cells grown under hypoxic conditions which was realized by treating the cells with CoCl2. Two different forms of antisense molecules, namely HIF1α-GB66 and HIF1α-GB67 were used and respective mismatches used as controls.
(§3) A lane of the Blot represents the cell lysate of the cells shown in the corresponding photograph. As a read-out, p110 alpha and p85 are shown as loading control and the component of the PI-3K pathway investigated, i.e. AKT, monitored as P*AKT, HIF1 alpha and PRF1.

Data set [2] deals with HIF1α. In words: Western blot analysis of HIF1α protein expression in PC-3 cells. It is filed as cell-based, human. As to conditions: PC-3 cells under hypoxic conditions; 72 h GeneBloc treatment, CoCl2 treatment for 24 h (FIG. 10B). The procedure:
as §1, §2, §3
In general terms: In western blotting, separated proteins are transferred to a membrane and probed.

In data set [3] the test system is PRF1 (NM—019058) specific mRNA. Kind of data set: PRF1 mRNA knock-down by real time RT-PCR (Taqman) in transfected PC-3 cells. It is filed as cell-based, human. As to conditions: PC-3 cells seeded on matrigel; standardized to internal p110α mRNA levels; DCt method. On the procedure: Transfections were carried out in 96 well or 10-cm plates (at 30% to 50% confluency) by using various cationic lipids such as Oligofectamine, Lipofectamine (Life Technologies), NC388 (Ribozyme Pharmaceuticals, Inc., Boulder, Colo.), or FuGene 6 (Roche) according to the manufacturer's instructions. GeneBlocs were transfected by adding pre-formed 5× concentrated complex of GeneBloc and lipid in serum-free medium to cells in complete medium. The total transfection volume was 100 μl for cells plated in 96 wells and 10 ml for cells in 10 cm plates. The final lipid concentration was 0.8 to 1.2 μg/ml depending on cell density; the GeneBloc concentration is indicated in each experiment.
The RNA of cells transfected in 96-wells was isolated and purified using the Invisorb RNA HTS 96 kit (InVitek GmbH, Berlin). Inhibition of PRF1 mRNA expression was detected by real time RT-PCR (Taqman) analysis using 300 nM PRF1 5′ primer, 300 nM PRF1 3′ primer and 100 nM of the PRF1 Taqman probe Fam-Tamra labelled. […]
PC3 cells were transfected and seeded on matrigel as described and growth was monitored. mRNA was isolated from an aliquot of the cells seeded on matrigel and analysed using Taqman assay (left panel). […]

Data set [4] relates to PC-3 cells. In words: In vitro growth on Matrigel matrix. Format: cell-based, human. As to conditions: PC-3 cells transfected with GeneBloc; versus corresponding mismatched oligonucleotides. On the procedure:
PC3 cells were treated with 10 μM LY294002 or DMSO when seeded on Matrigel. If cells were transfected previous to seeding cells were transfected with GeneBloc and trypsinized 48 h post transfection. The cells were washed in medium and seeded into duplicate 24-wells (100.000 cells per well) pre-coated with 250 μl matrigel basement membrane matrix (Becton Dickinson). After incubation for 24 to 72 h photographs were taken at 5× magnification with an Axiocam camera attached to an Axiovert 5100 microscope (Zeiss).
A more confluent growth of the cells is taken as an indication that their metastasis and migration behavior is increased which allows the cells to spread over the three-dimensional structure provided by the matrigel. The result of this example is depicted in FIG. 5.
PC3 cells were transfected and seeded on matrigel as described and growth was monitored. mRNA was isolated from an aliquot of the cells seeded on matrigel and analysed using Taqman assay (left panel). PRF1 (NM_019058) specific mRNA was standardized to internal p110α mRNA levels. A PTEN specific GeneBloc is used as a negative control in the PTEN^−/− PC-3 cells and a p110β specific GeneBloc is used as a positive control for growth in extracellular matrix. […]

The test system of data set [5] is PC-3 cells. Kind of data set: Prostatic tumor growth and lymph node metastasis of PC-3 cells stably transfected with siRNA expression plasmids. It is filed as in vivo, Shoe:NMRI-nu/nu mice. As to conditions: 56 days post inoculation, stably transfected PC-3 cells. On the procedure: Male Shoe:NMRI-nu/nu mice (Tierzucht Schönwalde GmbH) maintained under SPF conditions (Laminar air flow equipment, Scantainer, Scanbur) served as recipients for the human prostate carcinoma cells. The animals, aged 6-8 weeks and weighing 28-30 g, were inoculated 2×10^6/0.03 ml tumor cells into both, the left dorsolateral lobe of the prostatic gland (iprost; Orthotopic) or the tip of the Lobus lateralis sinister of the liver (ihep; Ectopic). For this purpose, the mice received a total body anaesthesia using a mixture of Ketanest (Parke-Davis GmbH) and Rompun (Bayer Vital GmbH) 80:1 with dosages of 100 mg/kg and 5 mg/kg, respectively. […]
All sacrificed animals were completely dissected and photographically documented. Tumors (Prostatic gland) and metastases (Caudal, lumbar, renal lymph node metastases) were measured in two dimensions by means of a pair of callipers. The volume was calculated according to V (mm^3)=ab^2/2 with b<a. […]
The various siRNA constructs such as the ones directed to p 110 alpha, p110 beta and PTEN as well as the PRF1 specific siRNA were cloned in the same vector construct. […] Resistent pools of cells were expanded and harvested, cell number determined and prepared for animal experiment as described. […]

d = 2'-deoxy (DNA); m = 2'-O-methyl

Take “GeneBloc 70168: mismatched oligonucleotide (4 mismatches) corresponding to 70043, alias FLJ: 954L21, SEQ ID NO. 12 (CCGAAAAGAACAGTGCUCUCU; sugars from the 5' end m6 d9 m6, backbone and methylation of C not given here; DNA gap phosphorothioate-linked, flank linkages not clearly stated, further chemistry not fully specified)”: the “expressed PRF1 protein” value in data set [1] is reported as “significantly expressed”. “HIF1α-GB66: GeneBloc antisense molecule specific for HIF1α, SEQ ID NO: 32 (antisense GGUAGUGGTGGCATTAGCAGU; sugars from the 5' end m6 d9 m6, backbone and methylation of C not given here; DNA gap phosphorothioate-linked, flank linkages not clearly stated, further chemistry not fully specified)”: the “expression of PRF1 protein” value in data set [1] is “reduced”. In addition, the “expression of HIF1α at the protein level” value in data set [2] is “significantly reduced”.

Take “Akt2 GeneBloc: Akt specific antisense molecule (GeneBloc), SEQ ID NO: 38 (antisense UCCUUGTACCCAATGAAGGAG; sugars from the 5' end m6 d9 m6, backbone and methylation of C not given here; DNA gap phosphorothioate-linked, flank linkages not clearly stated, further chemistry not fully specified)”: the PRF1 protein level entry in data set [1] (PC-3 cells, 72 h after treatment with Akt specific antisense molecules (FIG. 10A)) is “reduction”. With “GeneBloc 70044: third generation antisense oligonucleotide directed to PRF1 mRNA, SEQ ID NO. 8 (antisense GCUCCUGCCTCTAGTCUCCAC; sugars from the 5' end m6 d9 m6, backbone and methylation of C not given here; DNA gap phosphorothioate-linked, flank linkages not clearly stated, further chemistry not fully specified)”, in data set [3], the “knockdown of the mRNA of PRF1” value is “significant knockdown”. Further, in data set [4], the growth on matrigel entry is reported as “Specific growth inhibition”. For the same molecule, the “expressed PRF1 protein” value in data set [1] is listed as “significant decrease”. As for “HIF1α-GB67: GeneBloc antisense molecule specific for HIF1α, SEQ ID NO: 34 (antisense UGACUCCTTTTCCTGCUCUGU; sugars from the 5' end m6 d9 m6, backbone and methylation of C not given here; DNA gap phosphorothioate-linked, flank linkages not clearly stated, further chemistry not fully specified)”, the “expression of PRF1 protein” value in data set [1] was “reduced”. In data set [2], the “expression of HIF1α at the protein level” value is given as “significantly reduced”.

B1: PRF1 specific siRNA: siRNA generated by U6+2 promoter driven expression from plasmid, directed to the mRNA of PRF1; expression cassette SEQ ID NO. 17 (nucleic acid)
DNA: GAATTCCTATTTCCCATGATTCCTTCATATTTGCATATTTTTAAAATGGACTATCATATGCTTACCGTAACTTGAAAGTATTTCGATTTCTTGGCTTTATATATCTTGGGAAAGGACGAAACACCGGGAGACTAGAGGCAGGAGCAAAAAAAAAAACTCCTGCCTCTAGTCTCCACTTTTTCTCGAG
notes: siRNA generated by U6+2 promoter driven expression from plasmid, directed to the mRNA of PRF1; 17
On to B1, for which the “prostatic tumor growth (volume of primary prostate tumors)” value in data set [5] (EGFP expression plasmid as control (FIG. 6C)) is “significantly inhibited”. The “total lymph node metastasis (volume)” value in data set [5] (EGFP expression plasmid as control (FIG. 6D)) was “less prominent”.
